Laboratory results reported in patent US6737407B1, “Treatment of obesity” (Metabolic Pharmaceuticals, Ltd., priority 1997, dated 2004).
Where no end group is shown, it is not given here.

Legend:
[1] = system: C57BL/6J (ob/ob) mice; assay: Plasma triglyceride and total cholesterol in obese mice after 18-day chronic treatment; assay type: in vivo, mouse; settings: for Plasma total cholesterol / Plasma triglyceride: after 18-day treatment
Procedure: The animals were anaesthetised with sodium pentobarbitone (80 mg/kg body weight) 12 hr after the last dose of hGH 177-191. Blood samples were collected from the tail vein of anaesthetised animals 45 mins after the administration of anaesthetic. After being centrifuged at 2000×g for 5 minutes, plasma was removed from the samples and used for metabolite assays. Triglyceride and total cholesterol in plasma were measured by enzyme-spectrophotometric methods. The reagents are based on either a modified glycerol phosphate oxidase (GPO)-Trinder's type colour reaction^24 or a cholesterol oxidase-4-aminoantipyrine method^25. All assays were performed with the CentrifiChem System 400 (Union Carbide) containing an automated pipetter, a centrifugal analyser and a recording spectrophotometer. Seronorm Lipid (Nycomed Pharma Co., Oslo, Norway) was used as the calibrator.

[2] = system: adipose tissues of the C57BL/6J (ob/ob) mice; assay: Ex vivo lipogenesis in adipose tissues of treated ob/ob mice ([C14]-glucose incorporated into lipid); set-up: species or system mouse
From the text: FIGS. 5A & 5B depict the ex vivo effect on lipogenesis in adipose tissues of the C57BL/6J (ob/ob) male mice (5A) and female mice (5B) after 18-day treatment with hGH 177-191. […] The differences between the hGH 177-191 treated and saline control groups were statistically significant.
The procedure for the isolation and measurement of intact epididymal fat pads was established in previous studies of epididymal growth of GH-deficient (lit/lit) mice. In the present study, white adipose tissues, either whole epididymal or parametrical fat pads, were excised with the identical techniques as previously described^22 from the mice immediately after sacrifice. The tissues were washed in cold physiological saline, blotted and weighed. For ex vivo lipogenic assays, the portions of adipose tissues without blood vessels were used.
The rate of the incorporation of exogenous [C^14]-glucose into total lipid in adipose tissue was measured as the index of anti-lipogenic activity of hGH 177-191.
Adipose tissues were sliced into segments of approximately 200 mg each and then placed in Krebs-Ringer bicarbonate (KRB) buffer (pH 7.4) containing 2% defatted BSA, and glucose (0.1 mg/ml) and gassed with 95% O2-5% CO2 at 37° C. […] The [C^14] radioactivity was measured with a liquid scintillation counter. The rates of total lipid synthesis were expressed as μmol [C^14]-glucose incorporated into lipid/g tissue/hr.

[3] = system: adipose tissue of the C57BL/6J (ob/ob) mice; assay: Ex vivo lipolysis in adipose tissue of treated ob/ob mice (glycerol release); set-up: species or system mouse; settings: both sexes, ob/ob mice after 18-day treatment
Procedure: FIGS. 6A & 6B depict the ex vivo effect on lipolysis in adipose tissue of the C57BL/6J (ob/ob) male mice (6A) and female mice (6B) after 18-days treatment with hGH 177-191. […] Values are mean±SEM of 12 determinations from 6 animals of each group. The differences between the hGH 177-191 treated and saline control groups were statistically significant.
Adipose tissues were removed from animals and sliced into segments of approximately 200 mg each. Then the tissues were pre-incubated in 25 ml vials containing 2 ml of Krebs-Ringerbicarbonate (KRB) buffer, 4% defatted BSA and 5.5 mM glucose under an atmosphere of carbogen (95%O2/ 5%CO2) at 37° C. for 1 hour. Tissues were then transferred to another vials with fresh medium and the incubation was initiated by adding hGH 177-191 peptide or analogues into the vials. The mixtures were then incubated at 37° C. for 90 minutes. After incubation, the tissues wee removed and aliquots (200 μl) of samples withdrawn from the medium were assayed for the contents of glycerol or free fatty acid (FFA) either by the enzyme assay (glycerol kinase) or calorimetric (copper-dye) spectrometry. The NADH or color produced was then monitored by the absorption at 340 nm and 610 nm, respectively.

[4] = system: hormone-sensitive lipase; assay: Hormone-sensitive lipase (HSL) assay in isolated adipocytes; assay type: cell-based, rat
Procedure: The enzyme was expressed as U/mg protein, where the release of 1 nmole of oleic acid per hour was considered as 1 Unit of enzyme activity.
Hormone-sensitive lipase (HSL) activity of isolated adipocytes was used as a model to evaluate the lipolytic effect of hGH 177-191 peptide and analogues. In this assay [C^14]-triolein was used as a substrate by HSL. The amount of hydrolyzed [C^14]-oleic acid was determined and used as an index of HSL activity.
The adipocytes were prepared from the epididymal fat pads of male Zucker fatty (fa/fa) rats by collagenase digestion. Fat pads (5 g) were finely-cut into small (2-3 mm) pieces and placed in a siliconised glass vial containing 10 ml digestion medium. […] The isolated adipocytes were resuspended with 10 ml collagen-free buffer and the concentration of adipocytes was estimated by counting an aliquot of a pre-determined volume of cells on a microscope slide. […]
The HSL activity was measured at 37° C. for 1 hour in a final volume of 200 μl, containing 10 μmoles phosphate buffer (pH 7.0). […] The [C^14]-radioactivity was measured by a liquid scintillation counter. […] The HSL activity was expressed as U/mg protein, where the release of 1 nmole of oleic acid per hour was defined as 1 U of enzyme activity.

## LRIVQCRSVEGSCGF (cysteine pairing not given here) [Ref No. 9401]
[1]; both sexes, ob/ob mice
  plasma levels of triglyceride versus control (in words): did not influence
[1]; female ob/ob mice
  plasma levels of cholesterol versus control (in words): only slightly lower
  Plasma total cholesterol: 2.84 ± 0.29 mmol/L
  Plasma triglyceride: 0.38 ± 0.11 mmol/L
[1]; male ob/ob mice
  Plasma triglyceride: 0.58 ± 0.16 mmol/L
[1]; male ob/ob mice, listed as hGH 177-191
  Plasma total cholesterol: 3.52 ± 0.39 mmol/L
[2]; female ob/ob mice after 18-day treatment
  tissue lipogenic activity ([C14]-glucose incorporated into lipid): 2.99±0.21 pmol/mg tissue/min
[2]; male ob/ob mice after 18-day treatment
  tissue lipogenic activity ([C14]-glucose incorporated into lipid): 2.33±0.21 pmol/mg tissue/min
[3]
  lipolytic activity in adipose tissues of treated animals (in words): increase significantly
[4]
  effect on hormone-sensitive lipase (in words): effective in stimulating
